Test results published in PubChem BioAssay AID248 (DTP/NCI, 2004).
Toxic doses and inconclusive results are not listed. Cut-off read from the data, not from the text of the source: active = T/C of 150% or more; inactive = T/C below 125%. Square brackets hold non-standard residues; d marks the D form. Peptide text beside a SMILES is read from it. * marks the point of attachment. Cbz = O=C(OCc1ccccc1)*; Sar = CNCC(=O)O

System: L1210 leukemia ip in BDF1 mice, survival T/C
Test: NCI In Vivo Anticancer Drug Screen. Data for tumor model L1210 Leukemia (intraperitoneal) in B6D2F1 (BDF1) mice
Conditions: endpoint: mean survival time, higher = longer survival
How it was run: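 Survival endpoint. Drug-treated group vs vehicle group, expressed as T divided by C. Tumor passaged by transplantation.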

[1] = dose: 50.0 mg/kg/injection, schedule: Q01DX001 (ip), vehicle: saline
[2] = dose: 100.0 mg/kg/injection, schedule: Q01DX001 (ip), vehicle: saline
[3] = dose: 200.0 mg/kg/injection, schedule: Q01DX001 (ip), vehicle: saline
[4] = dose: 400.0 mg/kg/injection, schedule: Q01DX001 (ip), vehicle: saline
[5] = dose: 100.0 mg/kg/injection, schedule: Q01DX009 (ip), vehicle: saline
[6] = dose: 100.0 mg/kg/injection, schedule: Q04DX003 (ip), vehicle: saline
[7] = dose: 200.0 mg/kg/injection, schedule: Q01DX009 (ip), vehicle: saline
[8] = dose: 200.0 mg/kg/injection, schedule: Q04DX003 (ip), vehicle: saline
[9] = dose: 400.0 mg/kg/injection, schedule: Q01DX009 (ip), vehicle: saline
[10] = dose: 400.0 mg/kg/injection, schedule: Q04DX003 (ip), vehicle: saline
[11] = dose: 100.0 mg/kg/injection, schedule: Q01DX009 (ip), vehicle: saline with Tween-80
[12] = dose: 200.0 mg/kg/injection, schedule: Q01DX009 (ip), vehicle: saline with Tween-80
[13] = dose: 400.0 mg/kg/injection, schedule: Q01DX009 (ip), vehicle: saline with Tween-80
[14] = dose: 50.0 mg/kg/injection, schedule: Q01DX009 (ip), vehicle: Klucel (hydroxypropylcellulose) (HPC)
[15] = dose: 100.0 mg/kg/injection, schedule: Q01DX009 (ip), vehicle: Klucel (hydroxypropylcellulose) (HPC)
[16] = dose: 200.0 mg/kg/injection, schedule: Q01DX009 (ip), vehicle: Klucel (hydroxypropylcellulose) (HPC)
[17] = dose: 100.0 mg/kg/injection, schedule: Q04DX003 (ip), vehicle: Klucel (hydroxypropylcellulose) (HPC)
[18] = dose: 200.0 mg/kg/injection, schedule: Q04DX003 (ip), vehicle: Klucel (hydroxypropylcellulose) (HPC)
[19] = dose: 400.0 mg/kg/injection, schedule: Q01DX009 (ip), vehicle: Klucel (hydroxypropylcellulose) (HPC)
[20] = dose: 400.0 mg/kg/injection, schedule: Q04DX003 (ip), vehicle: Klucel (hydroxypropylcellulose) (HPC)
[21] = dose: 100.0 mg/kg/injection, schedule: Q01DX001 (ip), vehicle: Klucel (hydroxypropylcellulose) (HPC)
[22] = dose: 200.0 mg/kg/injection, schedule: Q01DX001 (ip), vehicle: Klucel (hydroxypropylcellulose) (HPC)
[23] = dose: 400.0 mg/kg/injection, schedule: Q01DX001 (ip), vehicle: Klucel (hydroxypropylcellulose) (HPC)
[24] = dose: 100.0 mg/kg/injection, schedule: Q04DX002 (ip), vehicle: saline with Tween-80

Measured: T/C

CCCCCCCCCCCCCCCCCCNC(=O)NNC(=O)CCCC(=O)NNC(=O)NCCCCCCCCCCCCCCCCCC
inactive: [1] 91 % of control | [2] 97 % of control | [3] 100 % of control | [4] 97 % of control

O=C1NC(c2ccccc2)(c2ccccc2)C(=O)N1CCO
inactive: [2] 100 % of control | [5] 96 % of control | [6] 107 % of control | [3] 92 % of control | [7] 96 % of control | [8] 104 % of control | [4] 102 % of control | [9] 90 % of control | [10] 98 % of control

CC(=O)n1c(O)c(N=Nc2ccccc2[N+](=O)[O-])c2ccccc21
inactive: dose: 100.0 mg/kg/injection, schedule: Q01DX001 (ip), vehicle: other 92 % of control | dose: 200.0 mg/kg/injection, schedule: Q01DX001 (ip), vehicle: other 93 % of control | dose: 400.0 mg/kg/injection, schedule: Q01DX001 (ip), vehicle: other 98 % of control

O=C(Nc1ccc(S(=O)(=O)F)cc1)c1ccc(COc2ccc([N+](=O)[O-])cc2Cl)cc1
inactive: [11] 92 % of control | [12] 94 % of control | [13] 94 % of control

CCc1ccc2c(c1)N(CC(C)CN(C)C)c1ccccc1S2 (configuration not stated)
inactive: dose: 1.56 mg/kg/injection, schedule: Q01DX009 (ip), vehicle: saline 115 % of control | dose: 3.12 mg/kg/injection, schedule: Q01DX009 (ip), vehicle: saline 109 % of control | dose: 6.25 mg/kg/injection, schedule: Q01DX009 (ip), vehicle: saline 106 % of control | dose: 12.5 mg/kg/injection, schedule: Q01DX009 (ip), vehicle: saline 102 % of control | dose: 12.5 mg/kg/injection, schedule: Q04DX003 (ip), vehicle: saline 113 % of control | dose: 25.0 mg/kg/injection, schedule: Q04DX003 (ip), vehicle: saline 115 % of control

Nc1ccc([N+](=O)[O-])cc1N=C/C=C/c1ccccc1
inactive: [14] 101 % of control | [15] 96 % of control | [16] 92 % of control

CCOC(=O)CN(C)C#N
inactive: [5] 101 % of control | [6] 92 % of control | [7] 101 % of control | [8] 92 % of control | [9] 92 % of control | [10] 91 % of control

O=C(COc1ccc(Cl)cc1)Nc1cc(C(F)(F)F)ccc1Cl
inactive: [15] 94 % of control | [17] 98 % of control | [16] 86 % of control | [18] 93 % of control | [19] 86 % of control | [20] 95 % of control

Cc1cc(C)c(NC(=O)C(Br)C(Br)c2ccccc2)c(C)c1 (configuration not stated)
inactive: [15] 98 % of control | [16] 98 % of control | [19] 98 % of control

CN(CC(=O)O)C(=O)CNC(=O)OCc1ccccc1 (Cbz-Gly-[Sar]-OH)
inactive: [14] 105 % of control | dose: 50.0 mg/kg/injection, schedule: Q04DX003 (ip), vehicle: Klucel (hydroxypropylcellulose) (HPC) 97 % of control | [15] 94 % of control | [17] 97 % of control | [16] 91 % of control | [18] 98 % of control

CC(C)CP(=O)(CC(C)C)C1CCCC1
inactive: dose: 100.0 mg/kg/injection, schedule: Q01DX001 (ip), vehicle: saline with Tween-80 100 % of control | dose: 200.0 mg/kg/injection, schedule: Q01DX001 (ip), vehicle: saline with Tween-80 105 % of control

CCCCOC(=O)CCCC(=O)OCCCC
inactive: [15] 98 % of control | [17] 100 % of control | [16] 97 % of control | [18] 101 % of control | [19] 95 % of control | [20] 101 % of control

O=C(COCC(=O)N/N=C/c1ccccc1Cl)N/N=C\c1ccccc1Cl
inactive: [15] 93 % of control | [16] 95 % of control

COC(=O)C/C=C/CC(=O)OC
inactive: [11] 95 % of control | [12] 90 % of control | [13] 88 % of control

O=C1OC(=O)C2C(c3ccccc3)C=C(Cl)C(CCCl)C12 (configuration not stated)
inactive: [21] 101 % of control | [22] 97 % of control | [23] 95 % of control

Nn1cnnc1N/N=C/c1ccccc1Cl
inactive: dose: 50.0 mg/kg/injection, schedule: Q01DX001 (ip), vehicle: carboxymethylcellulose (CMC) 94 % of control | dose: 100.0 mg/kg/injection, schedule: Q01DX001 (ip), vehicle: carboxymethylcellulose (CMC) 96 % of control | dose: 200.0 mg/kg/injection, schedule: Q01DX001 (ip), vehicle: carboxymethylcellulose (CMC) 94 % of control | dose: 400.0 mg/kg/injection, schedule: Q01DX001 (ip), vehicle: carboxymethylcellulose (CMC) 90 % of control

CCCC(CN(C)C)C(=O)c1ccccc1 (configuration not stated)
inactive: dose: 25.0 mg/kg/injection, schedule: Q01DX009 (ip), vehicle: saline with Tween-80 93 % of control | dose: 25.0 mg/kg/injection, schedule: Q04DX002 (ip), vehicle: saline with Tween-80 100 % of control | dose: 50.0 mg/kg/injection, schedule: Q01DX009 (ip), vehicle: saline with Tween-80 89 % of control | dose: 50.0 mg/kg/injection, schedule: Q04DX002 (ip), vehicle: saline with Tween-80 93 % of control | [11] 96 % of control | [24] 93 % of control

CS(=O)(=O)OCCC#N
inactive: dose: 50.0 mg/kg/injection, schedule: Q01DX009 (ip), vehicle: saline 103 % of control | [5] 101 % of control | dose: 100.0 mg/kg/injection, schedule: Q04DX003 (ip), vehicle: alcohol 102 % of control | dose: 200.0 mg/kg/injection, schedule: Q04DX003 (ip), vehicle: alcohol 93 % of control

CC(=C/c1ccccc1)/C=N/N=C(N)N
inactive: dose: 3.8 mg/kg/injection, schedule: Q01DX Z (ip), vehicle: saline 97 % of control | dose: 7.5 mg/kg/injection, schedule: Q01DX Z (ip), vehicle: saline 94 % of control | dose: 15.0 mg/kg/injection, schedule: Q01DX Z (ip), vehicle: saline 90 % of control

O=C(Oc1cccc(OC(=O)c2ccc(Cl)cc2)c1)c1ccc(Cl)cc1
inactive: [21] 100 % of control | [15] 112 % of control | [22] 100 % of control | [16] 110 % of control | [23] 93 % of control | [19] 108 % of control

CO/[N+]([O-])=C\C(=O)N/C=C/C(=O)O
inactive: dose: 13.3 mg/kg/injection, schedule: Q01DX Z (ip), vehicle: carboxymethylcellulose (CMC) 93 % of control | dose: 20.0 mg/kg/injection, schedule: Q01DX Z (ip), vehicle: carboxymethylcellulose (CMC) 101 % of control

CCOC(=O)c1ccc(NC(=S)NC(Cc2ccccc2)c2ccccc2)cc1 (configuration not stated)
inactive: [24] 98 % of control | dose: 200.0 mg/kg/injection, schedule: Q04DX002 (ip), vehicle: saline with Tween-80 95 % of control | dose: 400.0 mg/kg/injection, schedule: Q04DX002 (ip), vehicle: saline with Tween-80 95 % of control

O=S(=O)(CS(=O)(=O)c1ccccc1)c1ccccc1
inactive: dose: 75.0 mg/kg/injection, schedule: Q01DX009 (ip), vehicle: Klucel (hydroxypropylcellulose) (HPC) 102 % of control | dose: 150.0 mg/kg/injection, schedule: Q01DX009 (ip), vehicle: Klucel (hydroxypropylcellulose) (HPC) 98 % of control | dose: 300.0 mg/kg/injection, schedule: Q01DX009 (ip), vehicle: Klucel (hydroxypropylcellulose) (HPC) 95 % of control

CC1(C)OC2C3COc4nc5c(N)ncnc5n4C(O3)C2O1 (configuration not stated)
inactive: dose: 100.0 mg/kg/injection, schedule: Q01DX001 (ip), vehicle: steriod suspending solution 112 % of control | dose: 200.0 mg/kg/injection, schedule: Q01DX001 (ip), vehicle: steriod suspending solution 101 % of control | dose: 400.0 mg/kg/injection, schedule: Q01DX001 (ip), vehicle: steriod suspending solution 98 % of control

O=C(N/N=C\c1cc(=O)[nH]c(=O)[nH]1)c1ccccc1
inactive: [2] 100 % of control

COC(=O)C[N+]12CN3CN(CN(C3)C1)C2
inactive: [1] 98 % of control | [2] 100 % of control | [6] 107 % of control | [3] 96 % of control | [8] 107 % of control | [4] 107 % of control | [10] 108 % of control
